Results on five compounds are retold here after US20080038251A1, “MN/CA IX and MAPK inhibition” (priority 2006, published 2008).

Entries after “also recorded” stand apart in the source; their conditions may differ.

In one data set the test system is CA IX protein. Briefly: Immunoblotting of endogenous CA IX protein expression in HeLa cells. The format is cell-based, human. The conditions noted are these: data not shown; for CA IX protein level / hypoxic induction of CA IX protein: Example 9, hypoxia. How it is done:
HeLa cells were plated in dense (80,000 cells/cm^2) and sparse (10,000 cells/cm^2) cultures and incubated for 24 h. […] Parallel control dishes were pre-treated and maintained in normoxia for the same time period.
For the detection of CA IX, the cells were extracted with cold RIPA buffer for 15 min at 4° C. The extracts were then centrifuged (15 min at 13,000 rpm) and total protein concentrations were determined by BCA assay (Pierce, Rockford, Ill.). Samples of 30 μg total proteins were separated by the electrophoresis using 10% SDS-PAGE and blotted onto the PVDF membrane. Before immunodetection, the membrane was treated by the blocking buffer containing 5% non-fat milk in PBS with 0.2% Nonidet P-40 for 1 h and incubated for 1 h with M75 MAb diluted 1:2 in the blocking buffer. Then the membrane was washed, incubated for 1 h with the anti-mouse secondary antibody, washed again and developed with the ECL detection system. Intensity of CA IX-specific bands was analyzed by the Scion Image Beta 4.02 software (Scion Corporation, Frederick, Md.), and relative CA IX expression was expressed as percentages.
(In general: Immunoblotting shows a protein as a band on a membrane.)

For data set [1] the following is noted: compared with CI-1040; cited from earlier work.
A further data set concerns tumor xenograft models. The conditions noted are these: cited from earlier work.
For data set [2] the following is noted: compared with CI-1040; cited from earlier work. This is another data set of the same source.
For data set [3] the following is noted: compared with CI-1040; cited from earlier work. This is another data set of the same source.
For data set [4] the following is noted: Phase I and II clinical trials; cited from earlier work.
The test system of a further data set is MEK. Particulars: biochemical assays; cited from earlier work.
For data set [5], the system named is PR1-HRE CA9 promoter. Briefly: PR1-HRE-luc CA9 promoter luciferase-renilla reporter assay in HEK293 cells. The format is cell-based, human. The procedure: The inventors used PR1-HRE promoter region of CA9 ([…]) that contains HRE element and SP1 binding site, and assessed its transcriptional activity in luciferase-renilla reporter system. First, the PR1-HRE-luc plasmid was co-transfected together with renilla internal standard to HEK293 cells plated in high density and treated by the U0126 inhibitor of ERK (MAP kinases) for 20 h (FIG. 8). The promoter activity was analyzed in the transfected cells incubated in normoxic conditions or in the presence of DFO that can induce a chemical hypoxia. The promoter activity was determined as a ratio between the luciferase-related luminescence and renilla-related luminescence.
(§1) The PR1-HRE-luc promoter construct was generated by an insertion of a −50/+37 CA9 genomic region amplified by PCR upstream of the firefly luciferase gene in pGL3-Basic luciferase reporter vector (Promega). pRL-TK renilla vector (Promega) served for the control of the transfection efficiency.

For data set [6], the system named is PR1-HRE CA9 promoter.
Description: To dissect a direct contribution of HIF-1 to transcriptional activation of CA9 promoter, the inventors performed an additional experiment using Ka1.13 cell line that is defective for HIF-1α. The Ka1.13 cells were transfected either with PR1-HRE-luc reporter plasmid+renilla standard+control pcDNA3.1 plasmid or with the PR1-HRE-luc reporter plasmid+renilla standard+HIF-1α cDNA.
Cultures were pre-incubated with the inhibitors 1 h before the induction of hypoxia or addition of DFO.
The cells were plated into 30 mm Petri dishes to reach approximately 60% monolayer density on the next day. Transfection was performed with the 2 μg of PR1-HRE-luc and 100 ng of pRL-TK plasmids DNAs using a GenePorterII reagent (Gene Therapy Systems, San Diego, Calif.) according to the manufacturer's recommendation. One day later, the transfected cells were trypsinized and plated in triplicates into 24-well plates at different densities so that the dense culture contained eight times more cells than the sparse one. The cells were allowed to attach for 20 h, then they were pre-treated with inhibitors for 1 h and transferred to hypoxia (or treated with DFO) for additional 24 h. Reporter gene expression was assessed 48 h after the transfection using the Dual-Luciferase Reporter Assay System (Promega) and the luciferase activity was normalized against the renilla expression.
Therefore, the Ka13 cells were plated at intermediate density, transfected with the PR1-HRE-luc promoter construct together with the renilla control plasmid and pcDNA3.1 plasmid, pre-treated with the U0126 MAPK pathway inhibitor and exposed to a DFO-induced hypoxia. Parallel dishes were maintained in absence of DFO.
The subject of data set [7] is PR1-HRE CA9 promoter. Briefly: PR1-HRE-luc CA9 promoter luciferase-renilla reporter assay in HeLa cells. The format is cell-based, human.
From the text: as §1
Therefore, the inventors have cloned a −50/+37 CA9 genomic region, containing that module in its natural context relative to the transcription start site, upstream of the reporter luciferase gene. The PR1-HRE-luc promoter construct was then co-transfected with the renilla-coding control plasmid to HeLa cells that express CA IX protein in response to hypoxia and high cell density.

With mithramycin A [MMA], in the data set with CA IX protein (HeLa), the “CA IX protein level / hypoxic induction of CA IX protein” value was “reduced the CA IX protein level”.
`O=C(NOC[C@H](O)CO)c1ccc(F)c(F)c1Nc1ccc(I)cc1F` [PD-0325901]: the metabolic stability entry in [1] is reported as “improved metabolic stability”. In the data set on tumor xenograft models, the anti-tumor activity result was “potent anti-tumor activity”. For the same compound, in [2], the solubility entry is listed as “more soluble”. Further, the bioavailability result in [3] is recorded as “improved”.
Take “Rencarex: an MN-specific drug tested in Phase I and II clinical trials”: in data set [4], the “tolerability / drug-related side effects” value is reported as “well-tolerated, with no serious drug-related side effects”.
In the case of `Cn1cnc2c(F)c(Nc3ccc(Br)cc3Cl)c(C(=O)NOCCO)cc21` [ARRY-142886], the anti-tumor activity result in the data set on tumor xenograft models was “potent anti-tumor activity”. Besides, the “selectivity for MEK” value with MEK is recorded as “high selectivity for MEK”.
In the case of `N#CC(=C(/N)Sc1ccccc1N)/C(C#N)=C(\N)Sc1ccccc1N` [U0126], the “PR1-HRE CA9 promoter transcriptional activity (luciferase/renilla ratio)” value with PR1-HRE CA9 promoter [5] (Example 1, HEK293 plated in high density, inhibitor 20 h, normoxia or DFO-induced hypoxia) is “down-regulation of the PR1-HRE CA9 promoter activity; also recorded: diminished PR1-HRE transcriptional activity both in normoxia and in hypoxia”. Further, the CA9 promoter activity entry with PR1-HRE CA9 promoter [5] (Example 5, HEK293 dense culture exposed to hypoxia, data not shown) is on record as “considerably inhibited; also recorded: remarkable reduction”; with PR1-HRE CA9 promoter [7] (Example 5, HeLa sparse and dense, normoxia or DFO hypoxia, 20 μM inhibitor), “about fourfold decrease; also recorded: remarkable reduction”. The “PR1-HRE CA9 promoter transcriptional activity” value in the data set on PR1-HRE CA9 promoter [6] (Example 3, Ka1.13 cells with control pcDNA3.1 or HIF-1α cDNA) was “reduced the CA9 promoter activity in both the presence and absence of HIF-1α; also recorded: diminished transcription from PR1-HRE promoter both in the presence and in the absence of HIF-1α”. For the same compound, the “CA9 promoter activity, fraction of HIF-1α induced value” in the data set on PR1-HRE CA9 promoter [6] (Example 6, Ka13 co-transfected with wild-type HIF-1α cDNA) is on record as “approximately one third”. The “CA9 promoter activity, remaining fraction” value with PR1-HRE CA9 promoter [6] (Example 6, Ka13 with empty pcDNA3.1 (no HIF-1α), with and without DFO) is given as “less than a half”. Besides, in the data set on CA IX protein (Example 2, sparse and dense HeLa, normoxia (21% O2) and hypoxia (2% O2)), the “CA IX protein expression (Western blotting)” value is recorded as “evident also at the level of CA IX protein”. Moreover, in the data set with CA IX protein (Example 5, HeLa, hypoxia and/or high density), the “endogenous CA IX protein levels” value is on record as “corresponded with the promoter activities”. For the same compound, the “CA IX protein level / hypoxic induction of CA IX protein” value in the data set on CA IX protein (HeLa) is “reduced the CA IX protein level”. Further, in the data set on PR1-HRE CA9 promoter [7] (Example 8, dense hypoxic (1% O2) HeLa, 20 μM U0126, 10 μM LY294002), the “CA9 promoter activity, fraction of control value” is reported as “about one third”. The “effect on CA9 promoter activity” value with PR1-HRE CA9 promoter [7] (Example 8, normoxic and sparse HeLa cells, compared with dense hypoxic cells) is “less pronounced”.
